What is called IC50 is the midpoint of a concentration-inhibition curve.

The record followed here is patent publication US8334382B2, “Substituted biaryl piperazinyl-pyridine analogues” (Neurogen Corporation, priority 2004, dated 2012).

A value given as a limit tells only on which side of the number the result lay.

This experiment concerns the target T1, human capsaicin receptor (Homo sapiens, UniProt Q8NER1).
T1 construct: expressed in transfected cells; host or cells: HEK293, stably transfected with pBK-CMV construct
The experiment is described as follows: Calcium mobilization assay, determination of antagonist activity. To be noted: capsaicin at EC50; cells expressing human capsaicin receptor; Example 6. The class given is cell-based. In short, it runs like this:
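HEK293 cells stably expressing full-length human TRPV1, loaded with Fluo-3 AM in KRH buffer pH 7.4, preincubated with compound (final 1-5 µM) in the dark at room temperature for 0.5-6 h, then stimulated with capsaicin at its EC50. FLIPR fluorescence gave IC50 as concentration halving the capsaicin response.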
For orientation: Calcium flux is commonly read through the fluorescence of an indicator in the cells.

T1 sequence (Q8NER1 whole entry): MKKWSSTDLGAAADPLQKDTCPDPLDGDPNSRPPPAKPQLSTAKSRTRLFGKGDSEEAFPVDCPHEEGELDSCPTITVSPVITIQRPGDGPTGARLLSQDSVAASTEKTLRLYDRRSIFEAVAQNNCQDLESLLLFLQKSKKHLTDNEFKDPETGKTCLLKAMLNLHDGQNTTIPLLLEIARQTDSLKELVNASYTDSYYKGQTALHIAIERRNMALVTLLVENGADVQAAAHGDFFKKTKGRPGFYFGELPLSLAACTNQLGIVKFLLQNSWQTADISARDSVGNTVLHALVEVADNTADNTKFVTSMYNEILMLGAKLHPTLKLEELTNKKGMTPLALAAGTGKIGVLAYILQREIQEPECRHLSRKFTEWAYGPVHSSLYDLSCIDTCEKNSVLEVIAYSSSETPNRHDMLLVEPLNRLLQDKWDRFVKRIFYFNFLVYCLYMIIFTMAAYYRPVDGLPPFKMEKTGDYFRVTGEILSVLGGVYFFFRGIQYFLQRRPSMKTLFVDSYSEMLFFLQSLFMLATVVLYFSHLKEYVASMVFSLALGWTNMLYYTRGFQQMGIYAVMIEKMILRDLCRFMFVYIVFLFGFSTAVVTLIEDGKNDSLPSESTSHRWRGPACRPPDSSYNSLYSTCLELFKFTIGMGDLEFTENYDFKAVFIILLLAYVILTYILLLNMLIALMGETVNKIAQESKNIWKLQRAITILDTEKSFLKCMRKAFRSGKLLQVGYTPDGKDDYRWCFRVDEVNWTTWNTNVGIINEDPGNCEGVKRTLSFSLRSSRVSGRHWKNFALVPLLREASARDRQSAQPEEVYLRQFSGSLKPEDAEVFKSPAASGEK

In the case of `C[C@@H]1CN(c2ncc(C(=O)O)cc2Cl)CCN1c1cc(-c2ccc(F)cc2)nc(N2CCC[C@H]2CO)n1` [Example 156, 5-Chloro-6-{4-[6-(4-fluoro-phenyl)-2-(2-(S)-hydroxymethyl-pyrrolidin-1-yl)-pyrimidin-4-yl]-3-(R)-methyl-piperazin-1-yl}-nicotinic acid], the IC50 was no more than 1 µM.

Consider `CC(C)N(C)c1nc(-c2ccc(F)cc2)cc(N2CCN(c3ncc(C(=O)O)cc3Cl)C[C@H]2C)n1` [Example 157, 5-Chloro-6-{4-[6-(4-fluoro-phenyl)-2-(isopropyl-methyl-amino)-pyrimidin-4-yl]-3-(R)-methyl-piperazin-1-yl}-nicotinic acid], for which the half-maximal inhibitory concentration (IC50) is no more than 1 µM. The result for `O=C(O)c1cnc(N2CCN(c3cc(-c4ccc(F)cc4)nc(N4CCC[C@H]4CO)n3)CC2)c(Cl)c1` [Example 158, 5-Chloro-6-{4-[6-(4-fluoro-phenyl)-2-(2-(S)-hydroxymethyl-pyrrolidin-1-yl)-pyrimidin-4-yl]-piperazin-1-yl}-nicotinic acid] reads no more than 1 µM. In the case of `C[C@@H]1COCCN1c1nc(-c2ccc(F)cc2)cc(N2CCN(c3ncc(C(=O)O)cc3Cl)CC2)n1` [Example 159, 5-Chloro-6-{4-[6-(4-fluoro-phenyl)-2-(3-(R)-methyl-morpholin-4-yl)-pyrimidin-4-yl]-piperazin-1-yl}-nicotinic acid], the IC50 was no more than 1 µM. For the compound `CC(C)N(C)c1nc(-c2ccc(F)cc2)cc(N2CCN(c3ncc(C(=O)O)cc3Cl)CC2)n1` [Example 160, 5-Chloro-6-{4-[6-(4-fluoro-phenyl)-2-(isopropyl-methyl-amino)-pyrimidin-4-yl]-piperazin-1-yl}-nicotinic acid], the IC50 was no more than 1 µM. The result for `Cc1cc(C(=O)O)cnc1N1CCN(c2cc(-c3ccc(F)c(Cl)c3)nc(N(C)C(C)C)n2)CC1` [Example 161, 6-{4-[6-(3-Chloro-4-fluoro-phenyl)-2-(isopropyl-methyl-amino)-pyrimidin-4-yl] - piperazin-1-yl}-5-methyl-nicotinic acid] reads no more than 1 µM; that for `Cc1cc(-c2ncco2)cnc1N1CCN(c2cc(-c3ccc(F)cc3)nc(N3CCC[C@H]3C)n2)[C@H](C)C1` [Example 162, 4-(4-Fluoro-phenyl)-6-[2-(R)-methyl-4-(3-methyl-5-oxazol-2-yl-pyridin-2-yl)-piperazin-1-yl]-2-(2-(R)-methyl-pyrrolidin-1-yl)-pyrimidine], no more than 1 µM; that for `C[C@@H]1CN(c2ncc(C(=O)O)cc2Cl)CCN1c1cc(-c2ccccc2)nc(N2CCC[C@H]2CO)n1` [Example 163, 5-Chloro-6-{4-[2-(2-(S)-hydroxymethyl-pyrrolidin-1-yl)-6-phenyl-pyrimidin-4-yl]-3-(R)-methyl-piperazin-1-yl}-nicotinic acid], no more than 1 µM.

With `Cc1cc(-c2nnn[nH]2)cnc1N1CCN(c2cc(-c3ccc(F)cc3)nc(N3CCC[C@H]3C)n2)[C@H](C)C1` [Example 164, 4-(4-Fluoro-phenyl)-6-{2-(R)-methyl-4-[3-methyl-5-(1H-tetrazol-5-yl)-pyridin-2-yl]-piperazin-1-yl}-2-(2-(R)-methyl-pyrrolidin-1-yl)-pyrimidine], the IC50 was no more than 1 µM. The same measure for `C[C@@H]1CN(c2ncc(C(N)=O)cc2Cl)CCN1c1cc(-c2ccccc2)nc(N2CCC[C@H]2CO)n1` [Example 165, 5-Chloro-6-{4-[2-(2-(S)-hydroxymethyl-pyrrolidin-1-yl)-6-phenyl-pyrimidin-4-yl]-3-(R)-methyl-piperazin-1-yl}-nicotinamide]: no more than 1 µM; for `C[C@@H]1CN(c2ncc(C(=O)NCCO)cc2Cl)CCN1c1cc(-c2ccccc2)nc(N2CCC[C@H]2CO)n1` [Example 166, 5-Chloro-N-(2-hydroxy-ethyl)-6-{4-[2-(2-(S)-hydroxymethyl-pyrrolidin-1-yl)-6-phenyl-pyrimidin-4-yl]-3-(R)-methyl-piperazin-1-yl}-nicotinamide]: no more than 1 µM. As to `C[C@@H]1CN(c2ncc(C(=O)NCCO)cc2Cl)CCN1c1cc(-c2ccccc2)nc(N2CCC[C@H]2C)n1` [Example 167, 5-Chloro-N-(2-hydroxy-ethyl)-6-{3-(R)-methyl-4-[2-(2-(R)-methyl-pyrrolidin-1-yl)-6-phenyl-pyrimidin-4-yl]-piperazin-1-yl}-nicotinamide], the IC50 is no more than 1 µM. The result for `Cc1ccc(-c2cc(N3CCN(c4ncc(C(=O)O)cc4C)C[C@H]3C)nc(N3CCCC3C)n2)cc1` (stereo partly drawn) [Example 168, 5-Methyl-6-{3-(R)-methyl-4-[2-(2-methyl-pyrrolidin-1-yl)-6-p-tolyl-pyrimidin-4-yl]-piperazin-1-yl}-nicotinic acid] reads no more than 1 µM; that for `Cc1cc(-c2ncc[nH]2)cnc1N1CCN(c2cc(-c3ccc(F)cc3)nc(N3CCC[C@H]3C)n2)[C@H](C)C1` [Example 169, 4-(4-Fluoro-phenyl)-6-{4-[5-(1H-imidazol-2-yl)-3-methyl-pyridin-2-yl]-2-(R)-methyl-piperazin-1-yl}-2-(2-(R)-methyl-pyrrolidin-1-yl)-pyrimidine], no more than 1 µM. Take `Cc1cc(C(=O)O)cnc1N1CCN(c2cc(-c3ccc(F)cc3)nc(N3CCC[C@H]3C)n2)[C@@H](C)C1` [Example 170, 6-{4-[6-(4-Fluoro-phenyl)-2-(2-(R)-methyl-pyrrolidin-1-yl)-pyrimidin-4-yl]-3-(S)-methyl-piperazin-1-yl}-5-methyl-nicotinic acid]: the IC50 is no more than 1 µM. The result for `Cc1ccc(-c2cc(N3CCN(c4ncc(C(=O)NCCO)cc4C)C[C@H]3C)nc(N3CCCC3C)n2)cn1` (stereo partly drawn) [Example 171, N-(2-Hydroxy-ethyl)-5-methyl-6-{3-(R)-methyl-4-[6-(6-methyl-pyridin-3-yl)-2-(2-methyl-pyrrolidin-1-yl)-pyrimidin-4-yl]-piperazin-1-yl}-nicotinamide] reads no more than 1 µM. Consider `Cc1cc(C(=O)O)cnc1N1CCN(c2cc(-c3ccc(F)cc3)nc(N3CCC[C@H]3C)c2)[C@H](C)C1` [Example 172, 6-{4-[2-(4-Fluoro-phenyl)-6-(2-(R)-methyl-pyrrolidin-1-yl)-pyridin-4-yl]-3-(R)-methyl-piperazin-1-yl}-5-methyl-nicotinic acid], for which the IC50 is no more than 1 µM.

In the case of `C[C@@H]1CN(c2ncc(CO)cc2Cl)CCN1c1cc(-c2ccc(F)c(Cl)c2)nc(N2CCCCC2)n1` [Example 173, (5-Chloro-6-{4-[6-(3-chloro-4-fluoro-phenyl)-2-piperidin-1-yl-pyrimidin-4-yl]-3-(R)-methyl-piperazin-1-yl}-pyridin-3-yl)-methanol], the IC50 was no more than 1 µM. With `CCOC(=O)c1cnc(N2CCN(c3cc(-c4ccc(F)c(Cl)c4)nc(N4CCC[C@H]4C)n3)C[C@H]2C)c(Cl)c1` [Example 174, 5-Chloro-6-{4-[6-(3-chloro-4-fluoro-phenyl)-2-(2-(R)-methyl-pyrrolidin-1-yl)-pyrimidin-4-yl]-2-(R)-methyl-piperazin-1-yl}-nicotinic acid ethyl ester], the IC50 was no more than 1 µM. The result for `Cc1cc(C(=O)O)cnc1N1CCN(c2cc(-c3cccc(Cl)c3)nc(N3CCC[C@H]3C)c2)[C@H](C)C1` [Example 175, 6-{4-[2-(3-Chloro-phenyl)-6-(2-(R)-methyl-pyrrolidin-1-yl)-pyridin-4-yl]-3-(R)-methyl-piperazin-1-yl}-5-methyl-nicotinic acid] reads no more than 1 µM; that for `Cc1cc(-c2cc(N3CCN(c4ncc(C(=O)O)cc4C)C[C@H]3C)cc(N3CCC[C@H]3C)n2)ccc1F` [Example 176, 6-{4-[2-(4-Fluoro-3-methyl-phenyl)-6-(2-(R)-methyl-pyrrolidin-1-yl)-pyridin-4-yl]-3-(R)-methyl-piperazin-1-yl}-5-methyl-nicotinic acid], no more than 1 µM; that for `C[C@@H]1CCCN1c1nc(-c2ccc(F)cc2)cc(N2CCN(c3ncc(C(=O)O)cc3C(F)(F)F)CC2)n1` [Example 177, 6-{4-[6-(4-Fluoro-phenyl)-2-(2-(R)-methyl-pyrrolidin-1-yl)-pyrimidin-4-yl]-piperazin-1-yl}-5-trifluoromethyl-nicotinic acid], no more than 1 µM.

`Cc1cc(C(=O)O)cnc1N1CCN(c2cc(-c3ccc(F)c(Cl)c3)nc(N3CCC[C@H]3C)c2)[C@H](C)C1` [Example 178, 6-{4-[2-(3-Chloro-4-fluoro-phenyl)-6-(2-(R)-methyl-pyrrolidin-1-yl)-pyridin-4-yl]-3-(R)-methyl-piperazin-1-yl}-5-methyl-nicotinic acid]: the IC50 was no more than 1 µM. The result for `C[C@@H]1CN(c2ncc(C(=O)O)cc2C(F)(F)F)CCN1c1cc(-c2ccc(F)cc2)nc(N2CCC[C@H]2C)n1` [Example 179, 6-{4-[6-(4-Fluoro-phenyl)-2-(2-(R)-methyl-pyrrolidin-1-yl)-pyrimidin-4-yl]-3-(R)-methyl-piperazin-1-yl}-5-trifluoromethyl-nicotinic acid] reads no more than 1 µM. Take `Cc1cc(C(=O)O)cnc1N1CCN(c2cc(-c3cncc(Cl)c3)nc(N3CCC[C@H]3C)c2)[C@H](C)C1` [Example 180, 6-{4-[5′-Chloro-6-(2-(R)-methyl-pyrrolidin-1-yl)-[2,3′]bipyridinyl-4-yl]-3-(R)-methyl-piperazin-1-yl}-5-methyl-nicotinic acid]: the IC50 was no more than 1 µM. As for `Cc1cc(CCO)cnc1N1CCN(c2cc(-c3ccc(F)cc3)nc(N3CCC[C@H]3C)n2)[C@H](C)C1` [Example 181, 2-[6-((3R)-4-{6-(4-fluorophenyl)-2-[(2R)-2-methyl-1-pyrrolidinyl]-4-pyrimidinyl}-3-methyl-1-piperazinyl)-5-methyl-3-pyridinyl]ethanol], the IC50 was no more than 1 µM. The result for `Cc1cc(OCCO)cnc1N1CCN(c2cc(-c3ccc(F)c(Cl)c3)nc(N3CCC[C@H]3C)n2)[C@H](C)C1` [Example 182, 2-{[6-((3R)-4-{6-(3-chloro-4-fluorophenyl)-2-[(2R)-2-methyl-1-pyrrolidinyl]-4-pyrimidinyl}-3-methyl-1-piperazinyl)-5-methyl-3-pyridinyl]oxy}ethanol] reads no more than 1 µM.
